Measurements: US9434725B2, “5-azaindazole compounds and methods of use” (priority 2012, dated 2016)
Read-outs that look alike come from different tables or passages of the source.

What was measured:
[1] = molecular target: PIM3 (Homo sapiens (Human), UniProt Q86V86); experiment: Pim kinase binding activity, Caliper LC3000 microfluidic peptide phosphorylation assay, PIM3; format: biochemical; settings: 10 μM ATP, 90 min, room temperature; read-out: PIM3 LC3K (KI)
How it was run: (§1)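 Pim-specific fluorescent peptide phosphorylated in 10 mM HEPES pH 7.2, 10 mM MgCl2, 0.01% Tween 20, 2 mM DTT for 90 min at room temperature, then stopped with EDTA. Product and substrate separated by microfluidic mobility shift; Ki derived from substrate conversion.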

[2] = molecular target: PIM2 (Homo sapiens (Human), UniProt Q9P1W9); experiment: Pim kinase binding activity, Caliper LC3000 microfluidic peptide phosphorylation assay, PIM2; format: biochemical; settings: 10 μM ATP, 90 min, room temperature; read-out: PIM2 LC3K (KI)
How it was run: as §1

[3] = system: MM1.S (multiple myeloma) cells; experiment: In vitro cell proliferation potency assay (Cell Titer Glo), MM1.S cells; format: cell-based; settings: Homo sapiens, MM1.S, 72 h, MM1.S cells, 72 hours; read-out: Prolif MM1S ATP (EC50)
Procedure: (§2) BaF3 parental line was obtained from the DSMZ repository. BaF3 lines transfected with PIM1 or PIM2 were generated. Mouse IL-3 was purchased from R&D Systems. G418 was purchased from Clontech. Media for BaF3 parental line contained RPMI, 10% FBS, 2 mM L-Glutamine, 2 ng/mL mIL-3. Media for BaF3 PIM1 & 2 lines contained RPMI, 10% FBS, 2 mM L-Glutamine, […]. Media for MM1.S (multiple myeloma cells) line contained RPMI, 10% FBS, 2 mM L-Glutamine.
(§3) BaF3, a murine interleukin-3 dependent pro-B cell line, parental cells, BaF3 PIM1 cells, BaF3 PIM2 cells, and MM1.S (multiple myeloma) cells were seeded at 2 k/well, 5 k/well, 5 k/well, and 10 k/well respectively, in a 384-well plate, at 45 μL/well. Test compound was added at 5 μL/well. BaF3 cells (parental and transfected) were incubated overnight, while MM1.S cells were incubated for 72 hours at 37° C., 5% CO2. CELL TITER GLO® Reagent (Promega) was added at 50 μL/well, the plates were incubated for 30 minutes, and their luminescence read on an HT Analyst. IC50/EC50 values for the test compound were calculated.

[4] = molecular target: PIM1 (Homo sapiens (Human), UniProt P11309); experiment: biochemical; format: biochemical; settings: 10 μM ATP, 90 min, room temperature; read-out: PIM1 LC3K (KI)
How it was run: as §1

[5] = system: BaF3 PIM1 cells; experiment: In vitro cell proliferation potency assay (Cell Titer Glo), BaF3 PIM1 cells; format: cell-based, murine; settings: read-out: Prolif BaF3_PIM 1 (IC50)
Procedure: as §2, §3

[6] = Mus musculus, BaF3, BaF3 cells transfected with PIM1, incubated overnight

Sequence of PIM1 (P11309 whole entry): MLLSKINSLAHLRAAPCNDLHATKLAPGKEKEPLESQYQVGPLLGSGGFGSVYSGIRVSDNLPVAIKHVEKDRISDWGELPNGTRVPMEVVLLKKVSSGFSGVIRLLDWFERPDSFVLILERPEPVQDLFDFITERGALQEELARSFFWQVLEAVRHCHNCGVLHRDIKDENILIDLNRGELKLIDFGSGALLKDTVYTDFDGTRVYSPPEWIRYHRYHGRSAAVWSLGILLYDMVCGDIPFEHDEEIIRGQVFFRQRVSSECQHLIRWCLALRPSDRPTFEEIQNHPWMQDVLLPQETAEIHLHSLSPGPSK
Sequence of PIM2 (Q9P1W9 whole entry): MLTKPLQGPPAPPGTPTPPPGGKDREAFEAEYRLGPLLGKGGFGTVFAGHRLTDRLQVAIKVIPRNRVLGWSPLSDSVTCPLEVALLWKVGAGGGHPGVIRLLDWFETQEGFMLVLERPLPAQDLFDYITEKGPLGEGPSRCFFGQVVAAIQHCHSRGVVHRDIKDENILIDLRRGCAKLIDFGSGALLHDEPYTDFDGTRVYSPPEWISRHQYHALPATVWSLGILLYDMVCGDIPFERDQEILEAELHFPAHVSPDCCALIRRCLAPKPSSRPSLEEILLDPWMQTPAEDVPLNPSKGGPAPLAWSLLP

SMILES | Ki [1] | Ki [2] | EC50 [3] | Ki [4] | IC50 [5, 6] | IC50 ([5]; BaF3 cells transfected with PIM1, incubated overnight)
Cc1cncc(-c2cc3c(cnn3-c3cccc(N4CCNCC4)n3)nn2)n1 [Compound 313, 6-(6-methylpyrazin-2-yl)-1-(6-(piperazin-1-yl)pyridin-2-yl)-1H-pyrazolo[4,3-c]pyridazine] | 0.05 nM | 0.71 nM | 7.1 µM |  |  | 
O[C@H]1CCC[C@@H]1Nc1cncc(-c2cc3c(cn2)cnn3-c2cccc(N3CCNCC3)n2)n1 [Compound 283] | 0.182 nM | 8.05 nM | 8.9 µM |  |  | 
O[C@@H]1CNCCN(c2cccc(-n3ncc4cnc(-c5cnn(CC(F)(F)F)c5)cc43)n2)C1 [Compound 188, (R)-1-(6-(6-(1-(2,2,2-Trifluoroethyl)-1H-pyrazol-4-yl)-1H-pyrazolo[4,3-c]pyridin-1-yl)-pyridin-2-yl)-1,4-diazepan-6-ol] | 0.611 nM | 4.64 nM |  | 0.173 nM | 418 nM | 
FC1CCNCC1c1cccc(-n2ncc3cnc(-c4cnn(CC(F)(F)F)c4)cc32)n1 (stereo not shown) [Compound 306, 1-(6-(4-fluoropiperidin-3-yl)pyridin-2-yl)-6-(1-(2,2,2-trifluoroethyl)-1H-pyrazol-4-yl)-1H-pyrazolo[4,3-c]pyridine] | 0.125 nM |  | 1.7 µM |  |  | 
c1cc(N2CCCNCC2)nc(-n2ncc3cnc(-c4cncc(C5CC5)c4)cc32)c1 [Compound 112] | 0.093 nM | 3.87 nM |  | 0.038 nM | 490 nM | 
Cc1nc(-c2cc3c(cn2)cnn3-c2cccc(N3CCC[C@H](N)C3)n2)cnc1N [Compound 209, (S)-5-(1-(6-(3-aminopiperidin-1-yl)pyridin-2-yl)-1H-pyrazolo[4,3-c]pyridin-6-yl)-3-methylpyrazin-2-amine] | 0.011 nM | 0.575 nM |  | 0.045 nM | 682 nM | 
FC(F)(F)Cn1cc(-c2cc3c(cn2)cnn3-c2cncc(N3CCCNCC3)n2)cn1 [Compound 178, 1-(6-(1,4-Diazepan-1-yl)pyrazin-2-yl)-6-(1-(2,2,2-trifluoroethyl)-1H-pyrazol-4-yl)-1H-pyrazolo[4,3-c]pyridine] | 1.35 nM | 6.68 nM |  | 0.386 nM | 549 nM | 
CCn1cc(-c2cc3c(cn2)cnn3-c2cccc(N3CCC[C@H](N)C3)n2)cn1 [Compound 133, (3S)-1-[6-[6-(1-ethylpyrazol-4-yl)pyrazolo[4,3-c]pyridin-1-yl]-2-pyridyl]piperidin-3-amine] | 0.155 nM | 4.56 nM |  | 0.867 nM | 3000 nM | 
Cc1cncc(-c2cc3c(cn2)cnn3-c2ccc(C3CC3)c(N3CCC[C@H](N)C3)n2)n1 [Compound 181, (S)-1-(3-cyclopropyl-6-(6-(6-methylpyrazin-2-yl)-1H-pyrazolo[4,3-c]pyridin-1-yl)pyridin-2-yl)piperidin-3-amine] | 0.019 nM | 0.077 nM |  | 0.014 nM | 214 nM | 
Cc1cncc(-c2cc3c(cn2)cnn3-c2cnc(C)c(N3CCC[C@H](N)C3)n2)n1 [Compound 228, (3S)-1-[3-methyl-6-[6-(6-methylpyrazin-2-yl)pyrazolo[4,3-c]pyridin-1-yl]pyrazin-2-yl]piperidin-3-amine] | 0.047 nM | 0.724 nM |  | 0.074 nM | 778 nM | 
Cc1cncc(-c2cc3c(cn2)cnn3-c2cccc(N3CC(N)CCC3C)n2)n1 (single isomer, unassigned) [Compound 182, 6-methyl-1-[6-[6-(6-methylpyrazin-2-yl)pyrazolo[4,3-c]pyridin-1-yl]-2-pyridyl]piperidin-3-amine] |  |  | 1.9 µM |  |  | 
Cc1cncc(-c2cc3c(cn2)cnn3-c2cccc(N3CCNC(C)C3)n2)n1 (stereo not shown) [Compound 169, 1-[6-(3-methylpiperazin-1-yl)-2-pyridyl]-6-(6-methylpyrazin-2-yl)pyrazolo[4,3-c]pyridine] | 0.164 nM | 1.79 nM |  | 0.228 nM | 457 nM | 
Cc1cncc(-c2cc3c(cn2)cnn3-c2cccc(NC3CCNCC3)n2)n1 [Compound 190, 6-[6-(6-methylpyrazin-2-yl)pyrazolo[4,3-c]pyridin-1-yl]-N-(4-piperidyl)pyridin-2-amine] | 0.023 nM | 1.28 nM |  | 0.06 nM | 235 nM | 
Cc1cncc(-c2cc3c(cn2)cnn3-c2cccc(N3CCC[C@H](N)C3)n2)n1 [Compound 137, (3S)-1-[6-[6-(6-methylpyrazin-2-yl)pyrazolo[4,3-c]pyridin-1-yl]-2-pyridyl]piperidin-3-amine] | 0.038 nM | 0.499 nM |  | 0.159 nM | 2100 nM | 
Cc1cncc(-c2cc3c(cn2)cnn3-c2cccc(N3CCNC(C)C3)n2)n1 (single isomer, unassigned) [Compound 193, 1-[6-(3-methylpiperazin-1-yl)-2-pyridyl]-6-(6-methylpyrazin-2-yl)pyrazolo[4,3-c]pyridine] | 0.035 nM | 0.596 nM |  | 0.046 nM |  | 1200 nM
O[C@H]1CNCCN(c2cccc(-n3ncc4cnc(-c5cnn(CC(F)(F)F)c5)cc43)n2)C1 [Compound 189, (S)-1-(6-(6-(1-(2,2,2-Trifluoroethyl)-1H-pyrazol-4-yl)-1H-pyrazolo[4,3-c]pyridin-1-yl)-pyridin-2-yl)-1,4-diazepan-6-ol] | 0.089 nM | 0.373 nM |  | 0.038 nM | 181 nM | 
Cc1cc(-c2cc3c(cn2)cnn3-c2cccc(N3CCC[C@H](N)C3)n2)sn1 [Compound 124, (3S)-1-[6-[6-(3-methylisothiazol-5-yl)pyrazolo[4,3-c]pyridin-1-yl]-2-pyridyl]piperidin-3-amine] | 0.14 nM | 3.48 nM |  | 0.71 nM | 804 nM | 

More lines, now with the values ahead:

Ki [1] | Ki [2] | EC50 [3] | Ki [4] | IC50 [5, 6] | IC50 ([5]; BaF3 cells transfected with PIM1, incubated overnight) | SMILES
0.021 nM | 0.357 nM | 9.7 µM |  |  |  | OCCNc1cncc(-c2cc3c(cn2)cnn3-c2cccc(N3CCNCC3)n2)n1 [Compound 282, 2-[[6-[1-(6-piperazin-1-yl-2-pyridyl)pyrazolo[4,3-c]pyridin-6-yl]pyrazin-2-yl]amino]ethanol]
0.085 nM | 1.37 nM | 2.5 µM |  |  |  | FCCn1cc(-c2cc3c(cn2)cnn3-c2cccc(N3CCCNCC3)n2)cn1 [Compound 153, 1-(6-(1,4-Diazepan-1-yl)pyridin-2-yl)-6-(1-(2-fluoroethyl)-1H-pyrazol-4-yl)-1H-pyrazolo[4,3-c]pyridine]
0.026 nM | 1.71 nM | 2.7 µM |  |  |  | CC#Cc1cncc(-c2cc3c(cn2)cnn3-c2cccc(N3CCNCC3)n2)n1 [Compound 317, 1-(6-(piperazin-1-yl)pyridin-2-yl)-6-(6-(prop-1-ynyl)pyrazin-2-yl)-1H-pyrazolo[4,3-c]pyridine]
0.092 nM |  | 8.2 µM |  |  |  | NCCOc1cncc(-c2cc3c(cn2)cnn3-c2cccc(N3CCNCC3)n2)n1 [Compound 286, 2-((6-(1-(6-(piperazin-1-yl)pyridin-2-yl)-1H-pyrazolo[4,3-c]pyridin-6-yl)pyrazin-2-yl)oxy)ethanamine]
0.134 nM | 5.38 nM |  | 0.215 nM | 1500 nM |  | OCCn1cc(-c2cc3c(cn2)cnn3-c2cccc(N3CCCNCC3)n2)cn1 [Compound 152, 2-(4-(1-(6-(1,4-Diazepan-1-yl)pyridin-2-yl)-1H-pyrazolo[4,3-c]pyridin-6-yl)-1H-pyrazol-1-yl)ethanol]
 | 4.67 nM | 4.2 µM |  |  |  | OCC(O)c1cncc(-c2cc3c(cn2)cnn3-c2cccc(N3CCNCC3)n2)n1 (stereo not shown) [Compound 277, 1-(6-(1-(6-(piperazin-1-yl)pyridin-2-yl)-1H-pyrazolo[4,3-c]pyridin-6-yl)pyrazin-2-yl)ethane-1,2-diol]
0.174 nM | 1.14 nM |  | 0.063 nM | 139 nM |  | c1cc(N2CCNCC2)nc(-n2ncc3cnc(-c4cncc(C5CC5)n4)cc32)c1 [Compound 165, 6-(6-cyclopropylpyrazin-2-yl)-1-(6-piperazin-1-yl-2-pyridyl)pyrazolo[4,3-c]pyridine]
 | 0.44 nM | 4.6 µM |  |  |  | Cc1cncc(-c2cc3c(cn2)cnn3-c2cccc(N3CCCNCC3)n2)n1 [Compound 138, 1-[6-(1 4-diazepan-1-yl)-2-pyridyl]-6-(6-methylpyrazin-2-yl)pyrazolo[4,3-c]pyridine]
0.285 nM | 4.03 nM |  | 0.476 nM | 1500 nM |  | c1cc(N2CCNCC2)nc(-n2ncc3cnc(-c4cncs4)cc32)c1 [Compound 109, 5-[1-(6-piperazin-1-yl-2-pyridyl)pyrazolo[4,3-c]pyridin-6-yl]thiazole]
